From patent US20230295163A1, “TETRACYCLIC DERIVATIVE, METHOD FOR PREPARING SAME AND USE THEREOF IN MEDICINE” (ZHEJIANG HISUN PHARMACEUTICAL CO., LTD., priority 2020, published 2023)

Assays:
NCI-H358 cells = assay: Inhibition of NCI-H358 cell proliferation (CellTiter-Glo); format: cell-based, human; conditions: Homo sapiens, NCI-H358, 120 h, 120 h of culture; read-out: IC50 inhibiting NCI-H358 cell proliferation
Procedure: The following method was used to determine the effect of the compounds of the present disclosure on the proliferation of NCI-H358 cells. NCI-H358 cells (containing KRAS G12C mutation) were purchased from the Cell Resource Center, Shanghai Institutes for Biology Sciences, Chinese Academy of Sciences, and cultured in RPMI 1640 medium containing 10% fetal bovine serum, 100 U penicillin, 100 μg/mL streptomycin and 1 mM sodium pyruvate. Cell viability was determined by CellTiter-Glo® Luminescent Cell Viability Assay Kit (Promega, Cat. No. G7573).
The experiment was conducted according to the steps in the kit instruction, which is briefly described as follows: The test compound was first prepared with DMSO into a 10 mM stock solution, which was then diluted with medium into a test sample with a final concentration of the compound ranging from 1000 nM to 0.015 nM Cells in the logarithmic growth phase were inoculated into a 96-well cell culture plate at a density of 800 cells per well, cultured overnight at 37° C. in a 5% CO2 incubator, and then added with the test compound for 120 h of culture. After the culture was completed, 50 μL of CellTiter-Glo detection solution was added to each well, shaken for 5 min and left to stand for 10 min. Subsequently, the luminescence value of the sample in each well was read by a microplate in a luminescence mode. The percentage of inhibition rate of the compounds at each concentration was calculated by comparing with the value of the control group (0.3% DMSO). Then a nonlinear regression analysis on the log concentration-inhibition rate of the compounds was performed by the software GraphPad Prism 5 to obtain the IC50 value of the compound inhibiting NCI-H358 cell proliferation. Table 2 IC50 data of compounds of the present disclosure inhibiting NCI-H358 cell proliferation Compound number IC50(nM)

[1] = molecular target: T1, hERG potassium ion channel (Homo sapiens, UniProt Q12809); assay: Inhibition of hERG potassium ion channel (QPatch, CHO hERG cells); format: cell-based
T1 construct: host or cells: CHO
Procedure: 1.1 The cells used in this experiment were CHO cell line (provided by Sophion Bioscience, Denmark) transfected with hERG cDNA and stably expressing hERG channels, with a cell generation of 17. The cells were cultured in a medium containing the following components (all obtained from Invitrogen): Ham's F12 medium, 10% (v/v) inactivated fetal bovine serum, 100 μg/mL hygromycin B, and 100 μg/mL geneticin.
1.2 CHO hERG cells were cultured in a petri dish containing the above culture medium in an incubator containing 5% CO2 at 37° C. 24 to 48 h before the electrophysiological experiment, CHO hERG cells were transferred to a round glass slide placed in a petri dish, and cultured in the same medium and conditions as above. The density of CHO hERG cells on each round glass slide met the requirement that the majority of cells were independent and individual.
A fully automated QPatch system (Sophion, Denmark) was used for whole-cell current recordings. Cells were clamped at a voltage of −80 mV. […]
After reaching a membrane-permeable whole-cell configuration state during the initial phase, the cells were recorded for at least 120 s to reach stabilization. […]
The test data were analyzed by analysis software Qpatch provided by Sophion, Excel, Graphpad Prism, and the like.

T1 sequence (Q12809 whole entry): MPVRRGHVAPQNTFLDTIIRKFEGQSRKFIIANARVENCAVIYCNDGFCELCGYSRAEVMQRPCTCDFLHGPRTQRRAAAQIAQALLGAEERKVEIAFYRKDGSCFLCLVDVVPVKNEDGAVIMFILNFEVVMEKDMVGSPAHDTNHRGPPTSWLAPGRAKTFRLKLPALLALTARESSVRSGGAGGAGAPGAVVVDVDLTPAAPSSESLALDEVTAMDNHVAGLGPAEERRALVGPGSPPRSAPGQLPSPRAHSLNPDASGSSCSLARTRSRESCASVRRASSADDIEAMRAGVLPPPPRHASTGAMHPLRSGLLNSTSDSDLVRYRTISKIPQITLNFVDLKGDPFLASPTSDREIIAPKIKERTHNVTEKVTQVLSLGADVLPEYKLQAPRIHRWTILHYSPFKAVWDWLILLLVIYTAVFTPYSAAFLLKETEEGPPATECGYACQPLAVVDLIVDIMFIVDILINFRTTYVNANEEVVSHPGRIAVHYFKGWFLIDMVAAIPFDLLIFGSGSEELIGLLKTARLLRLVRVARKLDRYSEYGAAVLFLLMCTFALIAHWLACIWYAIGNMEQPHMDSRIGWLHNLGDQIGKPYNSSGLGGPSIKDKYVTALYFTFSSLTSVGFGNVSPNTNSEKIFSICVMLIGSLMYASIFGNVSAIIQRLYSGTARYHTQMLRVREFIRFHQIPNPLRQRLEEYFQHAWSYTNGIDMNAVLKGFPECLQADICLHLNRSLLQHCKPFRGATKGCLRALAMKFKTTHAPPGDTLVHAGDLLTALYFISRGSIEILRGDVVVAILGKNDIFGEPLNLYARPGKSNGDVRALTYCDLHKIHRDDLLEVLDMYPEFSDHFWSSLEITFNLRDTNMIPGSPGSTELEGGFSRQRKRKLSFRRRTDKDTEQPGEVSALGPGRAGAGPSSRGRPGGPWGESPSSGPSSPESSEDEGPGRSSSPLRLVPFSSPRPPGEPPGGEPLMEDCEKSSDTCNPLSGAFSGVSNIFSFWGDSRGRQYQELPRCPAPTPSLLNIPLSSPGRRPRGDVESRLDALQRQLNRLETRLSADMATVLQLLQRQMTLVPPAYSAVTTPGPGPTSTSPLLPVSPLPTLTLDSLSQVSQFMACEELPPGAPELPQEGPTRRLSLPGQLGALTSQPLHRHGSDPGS

IC50 (NCI-H358 cells): 21.1 nM
Compound: C=CC(=O)N1C[C@@H]2C(=O)N(C)c3c(c4cc(Cl)c(-c5c(O)cccc5F)nc4n(-c4c(SC)ccnc4C(C)C)c3=O)N2C[C@H]1C (single isomer, unassigned) [Compound 17]
Inhibitory effect on heart hERG potassium ion channel (in words) [1]: no obvious inhibitory effect
IC50 ([1]; highest test concentration 30 μM): > 30000 nM
